≈ marks a conversion by molar mass, not a printed value. Peptide text beside a SMILES is read from it.
Test system: A. baumannii ATCC 19606, Acinetobacter spp. ATCC 17903, Acinetobacter spp. ATCC 19004, E. coli BL21, S. aureus, S. typhimurium AroA, P. aeruginosa, P. …
Test: Antibacterial spectrum over the serial dilution panel (Table 6)
Format: cell-based
Settings: summary of Table 6
Experimental: Synthetic peptides were tested for their ability to inhibit bacterial growth in liquid culture. The peptides were added at a concentration of between about 5 μM and about 10 μM to individual wells of 96-deep-well dishes that contained liquid growth media freshly inoculated with one of the following bacteria: A. baumannii ATCC Accession No. 19606, Acinetobacter spp. ATCC 17903, Acinetobacter spp. ATCC 19004, Escherichia coli strain BL21, S. aureus, S. typhimurium strain AroA, P. aeruginosa or P. pneumotropica. After 5-6 hours of shaking at 37° C., growth was measured as absorbance at 595 nm. As a control, cultures were grown in the presence of 0.1% acetonitrile (i.e., the concentration present in 10 μM peptide).

SMILES | selectively inhibited growth of A. baumannii ATCC Accession No. 19606, Acinetobacter spp. ATCC 17903 and Acinetobacter spp. ATCC 19004
CC[C@H](C)[C@H](NC(=O)[C@H](CCCCN)NC(=O)[C@H](CO)NC(=O)[C@H](CC(C)C)NC(=O)[C@@H](N)CC(C)C)C(=O)N[C@@H](CCCNC(=N)N)C(=O)N[C@@H](C)C(=O)N[C@@H](CC(C)C)C(=O)N[C@@H](CCCNC(=N)N)C(=O)N[C@@H](CCCNC(=N)N)C(=O)N[C@@H](CCCNC(=N)N)C(=O)N[C@@H](CCCNC(=N)N)C(=O)N[C@@H](Cc1ccccc1)C(=O)NCC(=O)N[C@@H](CCC(N)=O)C(=O)N[C@@H](CS)C(=O)N[C@@H](CC(=O)O)C(=O)N[C@@H](CCCCN)C(=O)N[C@@H](CCCNC(=N)N)C(=O)N[C@H](C(=O)N[C@@H](CO)C(=O)N[C@@H](Cc1ccc(O)cc1)C(=O)N[C@@H](CCCCN)C(=O)O)[C@@H](C)CC [Ac15] (H-LLSKIRALRRRRFGQCDKRISYK-OH; N-terminus and C-terminus assumed) | selectively inhibited growth

Test system: A. baumannii
Test: not given
Format: cell-based
Settings: not given
From the text: Broth dilution methods are e.g., described by Lorian (2007) In: Antibiotics in Laboratory Medicine, Fifth Edition; and In: Clinical and Laboratory Standards Institute, CLSI (formerly NCCLS), In: Methods for Dilution Antimicrobial Susceptibility Tests for Bacteria that Grow Aerobically—Approved Standard—Seventh Edition, CLSI document M7-A7, Villanova, Pa. (NCCLS; January 2006; Vol. 26 No. 2); and In: Clinical and Laboratory Standards Institute, CLSI (formerly NCCLS), Performance Standards for Antimicrobial Susceptibility Testing, Seventeenth Informational Supplement, M100-S17, Vol 27 No. 1 January 2007, all of which are incorporated herein by reference.
The present inventors used such methods to quantitate activity in vitro of antimicrobial peptides of the invention against bacterial isolates, including laboratory strains and 50 clinical isolates of A. baumannii, and S. aureus ATCC Accession No. 2992. Briefly, small volumes of broth are dispensed in sterile, plastic microtiter trays, and 100 μl of serially-diluted antimicrobial peptide (0.1-64 μg) and 100 μl test organism (approximately 1×10^5 C.F.U.), are added. Following aerobic incubation overnight at 35±2° C. Control samples lacked peptide (Growth control), or lacked peptide and bacteria (Sterility control). The trays were examined visually and the minimal inhibitory concentration (MIC) of peptide required to inhibit bacterial growth were determined. The minimum bactericidal concentration (MBC) was estimated by sub-culturing the wells for which no bacterial growth was visible to the naked eye, to thereby determine a concentration of antimicrobial that reduces the original inoculum by at least about 99.9%.

SMILES | MIC [µM] | MIC (μM) for non-amidated Peptide [µM] | MBC [µM] | bactericidal or bacteriostatic against A. baumannii
CC[C@H](C)[C@H](NC(=O)[C@H](Cc1c[nH]c2ccccc12)NC(=O)[C@H](CCCNC(=N)N)NC(=O)[C@@H](N)CO)C(=O)N[C@@H](CS)C(=O)N[C@@H](CO)C(=O)N[C@@H](CCSC)C(=O)N[C@@H](C)C(=O)N[C@@H](CCCNC(=N)N)C(=O)N[C@@H](CCCNC(=N)N)C(=O)N[C@@H](CO)C(=O)N[C@@H](CCCNC(=N)N)C(=O)N[C@@H](CCCNC(=N)N)C(=O)N[C@@H](CCCNC(=N)N)C(=O)N[C@@H](CCCNC(=N)N)C(=O)N1CCC[C@H]1C(=O)NCC(=O)N[C@@H](CCCNC(=N)N)C(=O)N[C@@H](CO)C(=O)N[C@H](C(=O)N[C@@H](CCCNC(=N)N)C(=O)N[C@@H](CO)C(=O)N[C@@H](Cc1c[nH]c2ccccc12)C(=O)O)[C@@H](C)O [Ac390] (H-SRWICSMARRSRRRRPGRSTRSW-OH; N-terminus and C-terminus assumed) | 40 (≈ 116 µg/mL) | – | 40 (≈ 116 µg/mL) | –
CC[C@H](C)[C@H](NC(=O)[C@@H]1CCCN1C(=O)[C@@H](NC(=O)[C@@H](NC(=O)[C@H](C)NC(=O)[C@H](CCCNC(=N)N)NC(=O)[C@H](CC(C)C)NC(=O)[C@@H](NC(=O)[C@H](C)NC(=O)[C@H](CCCNC(=N)N)NC(=O)[C@H](CC(C)C)NC(=O)[C@H](CCSC)NC(=O)[C@H](C)NC(=O)[C@@H](NC(=O)[C@@H]1CCCN1C(=O)[C@H](CC(C)C)NC(=O)[C@@H](N)C(C)C)C(C)C)[C@@H](C)O)[C@@H](C)O)C(C)C)C(=O)N[C@@H](CO)C(=O)N[C@@H](CCCNC(=N)N)C(=O)N[C@@H](CO)C(=O)N[C@@H](CCCNC(=N)N)C(=O)N[C@@H](CC(C)C)C(=O)N[C@@H](CCCNC(=N)N)C(=O)O [Ac434] (H-VLPVAMLRATLRATVPISRSRLR-OH; N-terminus and C-terminus assumed) | 40 (≈ 103 µg/mL) | – | 40 (≈ 103 µg/mL) | –
CC(C)C[C@H](NC(=O)[C@H](CS)NC(=O)[C@@H](NC(=O)[C@@H](NC(=O)[C@H](Cc1ccccc1)NC(=O)[C@H](Cc1c[nH]c2ccccc12)NC(=O)[C@@H](NC(=O)[C@H](CC(C)C)NC(=O)[C@H](Cc1ccccc1)NC(=O)[C@H](CS)NC(=O)[C@@H](NC(=O)[C@H](CC(N)=O)NC(=O)[C@@H](N)Cc1c[nH]cn1)[C@@H](C)O)[C@@H](C)O)[C@@H](C)O)[C@@H](C)O)C(=O)O [Ac472] (H-HNTCFLTWFTTCL-OH; N-terminus and C-terminus assumed) | 15 (≈ 23.8 µg/mL) | 15 | – | bacteriostatic
CC(C)C[C@H](NC(=O)[C@H](Cc1ccccc1)NC(=O)[C@H](CCCNC(=N)N)NC(=O)[C@H](CCCNC(=N)N)NC(=O)[C@H](CCCNC(=N)N)NC(=O)[C@H](CO)NC(=O)[C@H](CS)NC(=O)[C@@H](N)Cc1c[nH]c2ccccc12)C(=O)N[C@@H](C)C(=O)N[C@@H](CCCNC(=N)N)C(=O)N[C@@H](CS)C(=O)N[C@@H](Cc1c[nH]c2ccccc12)C(=O)N[C@@H](CCCNC(=N)N)C(=O)O [Ac496] (H-WCSRRRFLARCWR-OH; N-terminus and C-terminus assumed) | 40 (≈ 71.8 µg/mL) | – | 40 (≈ 71.8 µg/mL) | –

Second part, led by results:

MIC [µM] | MIC (μM) for non-amidated Peptide [µM] | SMILES | MBC [µM] | bactericidal or bacteriostatic against A. baumannii
30 (≈ 76.1 µg/mL) | – | CC(C)C[C@H](NC(=O)CNC(=O)[C@H](CS)NC(=O)[C@H](CO)NC(=O)CNC(=O)[C@H](CCCNC(=N)N)NC(=O)[C@H](CS)NC(=O)[C@H](CCCCN)NC(=O)[C@H](CO)NC(=O)[C@H](CC(C)C)NC(=O)[C@@H](NC(=O)[C@H](CC(N)=O)NC(=O)[C@H](CS)NC(=O)[C@H](C)NC(=O)[C@H](CCCNC(=N)N)NC(=O)[C@H](Cc1c[nH]c2ccccc12)NC(=O)[C@H](CCCNC(=N)N)NC(=O)[C@H](Cc1c[nH]c2ccccc12)NC(=O)CNC(=O)[C@H](C)NC(=O)CN)[C@@H](C)O)C(=O)N[C@@H](CCCNC(=N)N)C(=O)N[C@H](C(=O)O)C(C)C [Ac379] (H-GAGWRWRACNTLSKCRGSCGLRV-OH; N-terminus and C-terminus assumed) | 39 (≈ 99 µg/mL) | –
40 (≈ 102 µg/mL) | – | CC(C)C[C@H](NC(=O)CNC(=O)[C@H](CS)NC(=O)[C@H](CO)NC(=O)CNC(=O)[C@H](CCCNC(=N)N)NC(=O)[C@H](CS)NC(=O)[C@H](CCCCN)NC(=O)[C@H](CO)NC(=O)[C@H](CC(C)C)NC(=O)[C@@H](NC(=O)[C@H](CC(N)=O)NC(=O)[C@H](CS)NC(=O)[C@H](C)NC(=O)[C@H](CCCNC(=N)N)NC(=O)[C@@H](N)Cc1c[nH]c2ccccc12)[C@@H](C)O)C(=O)N[C@@H](CCCNC(=N)N)C(=O)N[C@H](C(=O)N[C@@H](Cc1c[nH]c2ccccc12)C(=O)N[C@@H](C)C(=O)NCC(=O)N[C@@H](CCCNC(=N)N)C(=O)NCC(=O)O)C(C)C [Ac380] (H-WRACNTLSKCRGSCGLRVWAGRG-OH; N-terminus and C-terminus assumed) | – | –
40 (≈ 118 µg/mL) | – | CC[C@H](C)[C@H](NC(=O)[C@H](CCC(N)=O)NC(=O)[C@H](CCCNC(=N)N)NC(=O)[C@@H](NC(=O)[C@@H](NC(=O)[C@@H]1CCCN1)C(C)C)C(C)C)C(=O)N[C@@H](CC(C)C)C(=O)N[C@@H](CCCNC(=N)N)C(=O)N[C@@H](CO)C(=O)N[C@@H](CCC(=O)O)C(=O)N[C@@H](Cc1c[nH]c2ccccc12)C(=O)N[C@@H](CCCNC(=N)N)C(=O)N[C@@H](CC(N)=O)C(=O)N[C@@H](Cc1c[nH]c2ccccc12)C(=O)N[C@@H](CCCNC(=N)N)C(=O)N[C@@H](CCCCN)C(=O)N[C@@H](CO)C(=O)N[C@@H](CC(C)C)C(=O)N[C@@H](CCC(=O)O)C(=O)N[C@@H](CCSC)C(=O)N[C@@H](CCCNC(=N)N)C(=O)NCC(=O)N[C@@H](CCCNC(=N)N)C(=O)O [Ac437] (H-PVVRQILRSEWRNWRKSLEMRGR-OH; N-terminus and C-terminus assumed) | – | –
40 (≈ 97.5 µg/mL) | – | CC[C@H](C)[C@H](NC(=O)[C@H](CCCNC(=N)N)NC(=O)[C@@H]1CCCN1C(=O)CNC(=O)[C@H](C)NC(=O)[C@H](CCSC)NC(=O)[C@H](CCCNC(=N)N)NC(=O)[C@H](CC(C)C)NC(=O)[C@H](CCCNC(=N)N)NC(=O)[C@H](CS)NC(=O)[C@H](CS)NC(=O)[C@H](C)NC(=O)[C@H](Cc1c[nH]c2ccccc12)NC(=O)CNC(=O)[C@H](CS)NC(=O)CNC(=O)[C@H](C)NC(=O)[C@H](C)NC(=O)[C@@H]1CCCN1C(=O)[C@H](Cc1ccccc1)NC(=O)[C@H](Cc1c[nH]c2ccccc12)NC(=O)CN)C(=O)NCC(=O)O [Ac451] (H-GWFPAAGCGWACCRLRMAGPRIG-OH; N-terminus and C-terminus assumed) | – | –
50 (≈ 131 µg/mL) | – | CC[C@H](C)[C@H](NC(=O)[C@H](C)NC(=O)[C@H](Cc1c[nH]c2ccccc12)NC(=O)[C@H](CCCNC(=N)N)NC(=O)[C@H](CC(C)C)NC(=O)[C@H](CO)NC(=O)CNC(=O)[C@H](C)NC(=O)[C@H](CCCNC(=N)N)NC(=O)[C@H](Cc1c[nH]cn1)NC(=O)[C@H](CC(=O)O)NC(=O)[C@@H](NC(=O)[C@@H]1CCCN1C(=O)[C@H](CCCNC(=N)N)NC(=O)[C@@H]1CCCN1C(=O)[C@@H](N)CCCNC(=N)N)C(C)C)C(=O)N[C@@H](C)C(=O)N[C@@H](Cc1ccccc1)C(=O)N[C@@H](CCC(N)=O)C(=O)N[C@H](C(=O)N[C@@H](CO)C(=O)N[C@@H](CO)C(=O)N[C@@H](CC(C)C)C(=O)O)C(C)C [Ac469] (H-RPRPVDHRAGSLRWAIAFQVSSL-OH; N-terminus and C-terminus assumed) | – | bacteriostatic

Same assay, conditions: A. baumannii (Table 8); reduces original inoculum by at least about 99.9%

SMILES | MBC (μM)
CC[C@H](C)[C@H](NC(=O)[C@H](C)NC(=O)[C@H](Cc1c[nH]c2ccccc12)NC(=O)[C@H](CCCNC(=N)N)NC(=O)[C@H](CC(C)C)NC(=O)[C@H](CO)NC(=O)CNC(=O)[C@H](C)NC(=O)[C@H](CCCNC(=N)N)NC(=O)[C@H](Cc1c[nH]cn1)NC(=O)[C@H](CC(=O)O)NC(=O)[C@@H](NC(=O)[C@@H]1CCCN1C(=O)[C@H](CCCNC(=N)N)NC(=O)[C@@H]1CCCN1C(=O)[C@@H](N)CCCNC(=N)N)C(C)C)C(=O)N[C@@H](C)C(=O)N[C@@H](Cc1ccccc1)C(=O)N[C@@H](CCC(N)=O)C(=O)N[C@H](C(=O)N[C@@H](CO)C(=O)N[C@@H](CO)C(=O)N[C@@H](CC(C)C)C(=O)O)C(C)C [Ac469] (H-RPRPVDHRAGSLRWAIAFQVSSL-OH; N-terminus and C-terminus assumed) | bacteriostat
CC(C)C[C@H](NC(=O)[C@H](CS)NC(=O)[C@@H](NC(=O)[C@@H](NC(=O)[C@H](Cc1ccccc1)NC(=O)[C@H](Cc1c[nH]c2ccccc12)NC(=O)[C@@H](NC(=O)[C@H](CC(C)C)NC(=O)[C@H](Cc1ccccc1)NC(=O)[C@H](CS)NC(=O)[C@@H](NC(=O)[C@H](CC(N)=O)NC(=O)[C@@H](N)Cc1c[nH]cn1)[C@@H](C)O)[C@@H](C)O)[C@@H](C)O)[C@@H](C)O)C(=O)O [Ac472] (H-HNTCFLTWFTTCL-OH; N-terminus and C-terminus assumed) | bacteriostat

Reference: patent publication US20110262508A1, “ANTIMICROBIAL COMPOSITIONS, FORMULATIONS AND USES THEREOF” (priority 2007, published 2011)
